From US11377425B1, “Small molecule modulators of IL-17” (LEO Pharma A/S, priority 2018, dated 2022)
pEC50: −log10 of the molar value.

Target: T1, human IL-17AA (Homo sapiens, UniProt Q16552)
T1 construct: host or cells: HEK (human embryonic kidney) cells
T1 sequence (Q16552 24-155): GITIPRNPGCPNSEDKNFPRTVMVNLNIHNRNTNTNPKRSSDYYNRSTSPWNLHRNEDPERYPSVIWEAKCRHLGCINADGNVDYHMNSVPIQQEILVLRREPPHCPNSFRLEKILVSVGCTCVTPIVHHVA
Experiment: IL-8 release assay in human epithelial keratinocytes adult (HEKa)
Assay type: cell-based
Conditions: HEKa cells, 3 ng/mL HEK-human IL-17AA + 10 ng/mL human TNFalpha; read-out: Rel EC50 IL-8 release assay
Method: Example 138: IL-8 Release Assay in Human Epithelial Keratinocytes Adult (HEKa)
Keratinocytes were seeded at 3500 cells/well in 384-well ViewPlates (Perkin Elmer) in Epilife medium (Thermo Fisher) containing human keratinocyte growth supplement (HKGS) without hydrocortisone and incubated in a humid incubator at 37° C. 5% CO2, overnight. The following day growth medium was removed and 25 μl fresh Epilife medium added. 75 nL test compound in 100% DMSO was added into each well reserved for test compounds, by the use of acoustic pipetting. The remaining wells received an equal volume of DMSO only, as vehicle control, or terfenadine in DMSO, as a positive control for any cytotoxic compounds. Subsequently, another 25 μL Epilife medium was added to each well. Finally, wells containing test compounds and wells prepared to yield maximum stimulation received […] of 9 ng/mL recombinant, human embryonic kidney cell (HEK)-derived human IL-17AA+30 ng/mL human TNF-alpha, in Epilife medium. Wells prepared to define 100% inhibition of IL-17 effects received 25 μL of 30 ng/mL human TNF-alpha alone, in Epilife medium. Final concentrations were 3 ng/mL HEK-human IL-17AA+10 ng/mL human TNFalpha (maximum stimulation) and 10 ng/mL human TNFalpha alone (100% inhibition, Emax), respectively. Cells were incubated for 68-72 hours in the incubator. IL-8 released from the cells was measured by the use of a commercial homogenous time-resolved fluorescence (HTRF) assay (CisBio). 2 μL cell culture supernatant was transferred to a 384-well Proxiplate. 5 μL HTRF reagent was added and the plates incubated sealed in the dark for 3-22 hours at room temperature. Time-resolved fluorescence was read at 665 vs 620 nm, with excitation at 320 nm, and IL-8 levels calculated as percent of controls. Reduction of the amount of secreted IL-8 indicates decreased IL-17 signaling. Concentration response curves were fitted by the use of a four-parameter logistic equation. Relative IC50 and Emax were reported from curves showing acceptable fit (r^2>0.9). Cytotoxicity was measured in the cell-containing Viewplates following addition of 7 μL PrestoBlue (Thermo Fisher) and incubation for 2.5-3 hours at room temperature, by measuring fluorescence at 615 nm (excitation at 535 nm). Fluorescence was directly proportional to the amount of metabolic activity. Reduction of fluorescence signal indicated cytotoxicity.
Compounds of the present invention were tested in the IL-8 release assay in human epithelial keratinocytes.
Compounds having a Relative EC50 of X; wherein X<100 nM; are indicated with *
Compounds having a Relative EC50 of X; wherein 100 nM<X<1000 nM; are indicated with **
Compounds having a Relative EC50 of X; wherein 1000 nM<X; are indicated with ***

| SMILES | pEC50 |
| --- | --- |
| Cc1n[nH]c(C)c1-c1ccc(NC(=O)C(NC(=O)c2ccnn2C)C(C)c2ccccc2)cc1 (single isomer, unassigned) [Example 235] | < 6.00 |
| Cc1n[nH]c(C)c1-c1ccc(NC(=O)C(NC(=O)c2ccnn2C)C(C)c2ccccc2)cc1 (single isomer, unassigned) [Example 236] | < 6.00 |
| Cc1n[nH]c(C)c1-c1ccc(NC(=O)C(NC(=O)c2ccnn2C)C(C)c2ccccc2)cc1 (single isomer, unassigned) [Example 237] | < 6.00 |
| Cc1n[nH]c(C)c1-c1ccc(NC(=O)C(NC(=O)c2ccnn2C)C2CCc3c(F)cccc32)cc1 (single isomer, unassigned) [Example 248] | < 6.00 |
| Cc1n[nH]c(C)c1-c1ccc(NC(=O)C(NC(=O)c2ccnn2C)C2CCCc3cc(F)ccc32)cc1 (single isomer, unassigned) [Example 259] | < 6.00 |
| Cc1n[nH]c(C)c1-c1ccc(NC(=O)C(NC(=O)c2ccnn2C)C(c2ccccc2)C2CCC2)cc1 (single isomer, unassigned) [Example 300, N-[1-[cyclobutyl(phenyl)methyl]-2-[4-(3,5-dimethyl-1H-pyrazol-4-yl)anilino]-2-oxo-ethyl]-2-methyl-pyrazole-3-carboxamide] | < 6.00 |
| Cc1n[nH]c(C)c1-c1ccc(NC(=O)C(NC(=O)c2ccnn2C)C(c2ccccc2)C2CC2)cc1 (single isomer, unassigned) [Example 302, N-[1-[cyclopropyl(phenyl)methyl]-2-[4-(3,5-dimethyl-1H-pyrazol-4-yl)anilino]-2-oxo-ethyl]-2-methyl-pyrazole-3-carboxamide] | < 6.00 |
| Cc1n[nH]c(C)c1-c1ccc(NC(=O)C(NC(=O)c2ccnn2C)C(c2ccccc2)C2CC2)cc1 (single isomer, unassigned) [Example 304, N-[1-[cyclopropyl(phenyl)methyl]-2-[4-(3,5-dimethyl-1H-pyrazol-4-yl)anilino]-2-oxo-ethyl]-2-methyl-pyrazole-3-carboxamide] | < 6.00 |
| Cn1cncc1-c1ccc(NC(=O)C(NC(=O)OC(C)(C)C)C(c2ccccc2)C2CCC2)cc1 (single isomer, unassigned) [Example 310, tert-butyl N-[1-[cyclobutyl(phenyl)methyl]-2-[4-(3-methylimidazol-4-yl)anilino]-2-oxo-ethyl]carbamate] | < 6.00 |
| Cn1cncc1-c1ccc(NC(=O)C(NC(=O)OC(C)(C)C)C(c2ccccc2)C2CCC2)cc1 (single isomer, unassigned) [Example 311, tert-butyl N-[1-[cyclobutyl(phenyl)methyl]-2-[4-(3-methylimidazol-4-yl)anilino]-2-oxo-ethyl]carbamate] | < 6.00 |
| Cn1cncc1-c1ccc(NC(=O)[C@@H](NC(=O)OC(C)(C)C)C(C2CCCCC2)C2CCCC2)cc1 (single isomer, unassigned) [Example 312] | < 6.00 |
| Cn1cncc1-c1ccc(NC(=O)[C@@H](NC(=O)OC(C)(C)C)C(C2CCCCC2)C2CCCC2)cc1 (single isomer, unassigned) [Example 313] | < 6.00 |
| Cc1ncn(C)c1-c1ccc(NC(=O)C(NC(=O)c2ccnn2C)C2CCC(F)(F)CC2)cc1 (single isomer, unassigned) [Example 333, N-[1-(4,4-difluorocyclohexyl)-2-[4-(3,5-dimethylimidazol-4-yl)anilino]-2-oxo-ethyl]-2-methyl-pyrazole-3-carboxamide] | < 6.00 |
| Cc1ncn(C)c1-c1ccc(NC(=O)C(NC(=O)c2ccnn2C)C2CCC(F)(F)CC2)cc1 (single isomer, unassigned) [Example 334, N-[1-(4,4-difluorocyclohexyl)-2-[4-(3,5-dimethylimidazol-4-yl)anilino]-2-oxo-ethyl]-2-methyl-pyrazole-3-carboxamide] | < 6.00 |
| Cn1cncc1-c1ccc(NC(=O)[C@@H](NC(=O)c2ccnn2C)C(C2CCCCC2)C2CCCC2)cc1 (single isomer, unassigned) [Example 339B] | 6.00 to 7.00 |
| Cn1cncc1-c1ccc(NC(=O)C(NC(=O)c2ccnn2C)C(c2cccc(Cl)c2)c2cccc(Cl)c2)cc1 (single isomer, unassigned) [Example 373A, N-(1,1-Bis(3-chlorophenyl)-3-((4-(1-methyl-1H-imidazol-5-yl)phenyl)amino)-3-oxopropan-2-yl)-1-methyl-1H-pyrazole-5-carboxamide] | 6.00 to 7.00 |
| Cn1cncc1-c1ccc(NC(=O)C(NC(=O)c2ccnn2C)C(c2cccc(Cl)c2)c2cccc(Cl)c2)cc1 (single isomer, unassigned) [Example 373B, N-(1,1-Bis(3-chlorophenyl)-3-((4-(1-methyl-1H-imidazol-5-yl)phenyl)amino)-3-oxopropan-2-yl)-1-methyl-1H-pyrazole-5-carboxamide] | < 6.00 |

The next lines start with the values.

| pEC50 | SMILES |
| --- | --- |
| > 7.00 | Cc1n[nH]c(C)c1-c1ccc(NC(=O)[C@@H](NC(=O)c2ccnn2C)C2CCCC(C)(C)C2)cc1 (single isomer, unassigned) [Example 239] |
| > 7.00 | Cc1n[nH]c(C)c1-c1ccc(NC(=O)C(NC(=O)c2ccnn2C)C2CCc3c(F)cccc32)cc1 (single isomer, unassigned) [Example 247] |
| 6.00 to 7.00 | Cc1n[nH]c(C)c1-c1ccc(NC(=O)[C@@H](NC(=O)c2ccnn2C)C2CC3CCC2CC3)cc1 (single isomer, unassigned) [Example 254] |
| > 7.00 | Cc1n[nH]c(C)c1-c1ccc(NC(=O)C(NC(=O)c2ccnn2C)[C@H]2CCCc3c(F)cc(F)cc32)cc1 (single isomer, unassigned) [Example 255] |
| > 7.00 | Cc1n[nH]c(C)c1-c1ccc(NC(=O)C(NC(=O)c2ccnn2C)[C@H]2CCCc3c(F)cccc32)cc1 (single isomer, unassigned) [Example 256] |
| > 7.00 | CCC(C1CCCCC1)C(NC(=O)c1ccnn1C)C(=O)Nc1ccc(-c2c(C)n[nH]c2C)cc1 (single isomer, unassigned) [Example 257] |
| > 7.00 | CCC(C1CCCCC1)C(NC(=O)c1ccnn1C)C(=O)Nc1ccc(-c2c(C)n[nH]c2C)cc1 (single isomer, unassigned) [Example 258] |
| > 7.00 | Cc1n[nH]c(C)c1-c1ccc(NC(=O)C(NC(=O)c2ccnn2C)C2CCCc3cc(F)ccc32)cc1 (single isomer, unassigned) [Example 260] |
| > 7.00 | Cc1n[nH]c(C)c1-c1ccc(NC(=O)[C@@H](NC(=O)c2ccnn2C)C2C[C@@H](C)C[C@@H](C)C2)cc1 (single isomer, unassigned) [Example 268] |
| 6.00 to 7.00 | Cc1n[nH]c(C)c1-c1ccc(NC(=O)[C@@H](NC(=O)c2ccnn2C)C2CCC(C(F)(F)F)CC2)cc1 (single isomer, unassigned) [Example 269] |
| > 7.00 | Cc1n[nH]c(C)c1-c1ccc(NC(=O)C(NC(=O)c2ccnn2C)C(c2ccccc2)C2CCC2)cc1 (single isomer, unassigned) [Example 299, N-[1-[cyclobutyl(phenyl)methyl]-2-[4-(3,5-dimethyl-1H-pyrazol-4-yl)anilino]-2-oxo-ethyl]-2-methyl-pyrazole-3-carboxamide] |
| 6.00 to 7.00 | Cc1n[nH]c(C)c1-c1ccc(NC(=O)C(NC(=O)c2ccnn2C)C(c2ccccc2)C2CC2)cc1 (single isomer, unassigned) [Example 301, N-[1-[cyclopropyl(phenyl)methyl]-2-[4-(3,5-dimethyl-1H-pyrazol-4-yl)anilino]-2-oxo-ethyl]-2-methyl-pyrazole-3-carboxamide] |
| 6.00 to 7.00 | Cc1n[nH]c(C)c1-c1ccc(NC(=O)C(NC(=O)c2ccnn2C)C(c2ccccc2)C2CC2)cc1 (single isomer, unassigned) [Example 303, N-[1-[cyclopropyl(phenyl)methyl]-2-[4-(3,5-dimethyl-1H-pyrazol-4-yl)anilino]-2-oxo-ethyl]-2-methyl-pyrazole-3-carboxamide] |
| 6.00 to 7.00 | Cn1cncc1-c1ccc(NC(=O)[C@@H](NC(=O)c2ccnn2C)C(C2CCCCC2)C2CCCC2)cc1 (single isomer, unassigned) [Example 339A] |
